This is an account of results in paper PMC7939391, “[4Fe-4S] cluster trafficking mediated by Arabidopsis mitochondrial ISCA and NFU proteins” (The Journal of Biological Chemistry, 2021).

This assay deals with T1, ACO2 (Arabidopsis thaliana, UniProt Q94A28).
T1 construct: untagged recombinant from pET15b (NcoI-XhoI), E. coli BL21(DE3); forward primer encodes start MASEHSY (transit peptide removed)
T1 sequence (Q94A28 98-995): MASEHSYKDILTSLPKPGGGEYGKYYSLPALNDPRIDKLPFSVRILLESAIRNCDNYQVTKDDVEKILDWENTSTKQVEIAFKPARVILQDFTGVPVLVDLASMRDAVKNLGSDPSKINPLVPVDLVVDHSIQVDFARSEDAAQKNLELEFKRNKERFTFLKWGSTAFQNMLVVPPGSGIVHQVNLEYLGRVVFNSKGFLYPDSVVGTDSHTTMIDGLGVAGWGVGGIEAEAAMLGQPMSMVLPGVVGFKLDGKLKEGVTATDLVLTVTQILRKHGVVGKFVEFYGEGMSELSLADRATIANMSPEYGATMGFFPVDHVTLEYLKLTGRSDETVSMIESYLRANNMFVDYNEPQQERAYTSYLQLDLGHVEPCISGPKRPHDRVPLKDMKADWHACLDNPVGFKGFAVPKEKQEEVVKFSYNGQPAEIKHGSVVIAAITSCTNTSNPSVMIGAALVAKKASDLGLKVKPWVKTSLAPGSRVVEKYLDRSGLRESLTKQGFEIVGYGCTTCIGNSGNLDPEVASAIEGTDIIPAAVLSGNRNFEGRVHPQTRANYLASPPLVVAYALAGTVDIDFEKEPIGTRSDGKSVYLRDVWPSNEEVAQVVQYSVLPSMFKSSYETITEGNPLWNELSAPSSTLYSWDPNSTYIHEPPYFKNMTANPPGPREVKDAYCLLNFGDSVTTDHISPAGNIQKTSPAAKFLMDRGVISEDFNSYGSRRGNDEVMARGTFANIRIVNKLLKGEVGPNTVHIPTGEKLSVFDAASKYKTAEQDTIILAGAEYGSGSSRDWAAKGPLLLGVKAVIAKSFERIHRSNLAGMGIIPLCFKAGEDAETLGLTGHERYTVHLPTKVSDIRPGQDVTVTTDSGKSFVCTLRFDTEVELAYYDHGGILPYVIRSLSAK
The assay can be described thus: absorbance at […] nm. Particulars: from citrate or isocitrate; [4Fe-4S]-loaded enzyme. It counts as biochemical.

Regarding `O=C(O)/C=C(/CC(=O)O)C(=O)O` [cis-aconitate], the “absorbance at 240 nm” value is listed as “following the formation of cis-aconitate from citrate or isocitrate”.
